One experiment has as its target GST-Bcl-2 (Homo sapiens, UniProt P10415). The experiment in a line: TR-FRET binding assay, GST-Bcl-2 with F-Bak peptide probe. The following applies: for Ki: TR-FRET Binding Affinity, GST-Bcl-2, F-Bak peptide probe; for Binding selectivity ratio (Bcl-XL Ki/Bcl-2 Ki): ratio of TR-FRET Ki values, Bcl-XL over Bcl-2. The procedure, abridged:
(§1)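 Compounds were serially diluted in DMSO from a 50 μM starting solution (2× the starting concentration; 10% DMSO). Plates were incubated for 3 h at room temperature, and TR-FRET was read with 340/35 nm excitation and emission at 520/525 nm (F-Bak) and 495/510 nm (Tb antibody). Ki values were calculated using Wang's competitive-binding equation.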
On the technique in general: TR-FRET usually uses a lanthanide donor and a delayed reading to cut background.

The target of a further experiment is GST-Bcl-XL (Homo sapiens, UniProt Q07817). The experiment in a line: TR-FRET binding assay, GST-Bcl-XL with F-Bak peptide probe. The following applies: TR-FRET Binding Affinity, GST-Bcl-XL, F-Bak peptide probe. The procedure, abridged: as §1
GST-Bcl-XL, sequence (Q07817 whole entry): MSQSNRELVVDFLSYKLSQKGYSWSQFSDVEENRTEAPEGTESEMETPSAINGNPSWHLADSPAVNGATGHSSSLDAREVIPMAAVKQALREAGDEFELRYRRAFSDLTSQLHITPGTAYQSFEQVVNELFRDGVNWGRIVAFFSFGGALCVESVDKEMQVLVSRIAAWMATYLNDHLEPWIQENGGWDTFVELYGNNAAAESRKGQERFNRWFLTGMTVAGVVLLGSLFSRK

This note sets out measurements from US9073855B2, “BCL-2 selective apoptosis-inducing agents for the treatment of cancer and immune diseases” (AbbVie Inc., priority 2008, dated 2015).

Structures are written as SMILES. Bounds are passed on as bounds.

GST-Bcl-2, sequence (P10415 whole entry): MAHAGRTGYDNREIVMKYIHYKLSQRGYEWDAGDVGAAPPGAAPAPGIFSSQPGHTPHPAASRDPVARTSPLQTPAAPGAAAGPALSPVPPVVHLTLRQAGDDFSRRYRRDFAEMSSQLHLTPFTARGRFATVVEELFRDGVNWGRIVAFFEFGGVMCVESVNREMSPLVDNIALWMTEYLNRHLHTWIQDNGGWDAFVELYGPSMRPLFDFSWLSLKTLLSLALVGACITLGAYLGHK

As a reminder, the Ki is the equilibrium dissociation constant of an inhibitor or competing ligand from its target. Regarding `CC1(C)CCC(CN2CCN(c3ccc(C(=O)NS(=O)(=O)c4cnc(OCC5(F)CCN(CC#N)CC5)c(Cl)c4)c(Oc4cccc5[nH]ncc45)c3)CC2)=C(c2ccc(Cl)cc2)C1` [Example 419, N-[(5-chloro-6-{[1-(cyanomethyl)-4-fluoropiperidin-4-yl]methoxy}pyridin-3-yl)sulfonyl]-4-(4-{[2-(4-chlorophenyl)-4,4-dimethylcyclohex-1-en-1-yl]methyl}piperazin-1-yl)-2-(1H-indazol-4-yloxy)benzamide], at GST-Bcl-2, the Ki was 0.197 nM and the “Binding selectivity ratio (Bcl-XL Ki/Bcl-2 Ki)” value (shortened to “Binding selectivity ratio”) was found to be 1070.8. At GST-Bcl-XL, this compound returned a Ki of 211 nM.
Turning to `CC1(C)CCC(CN2CCN(c3ccc(C(=O)NS(=O)(=O)c4cnc(OCC5CCOC5)c(Cl)c4)c(Oc4cccc5[nH]ncc45)c3)CC2)=C(c2ccc(Cl)cc2)C1` (centres unmarked) [Example 420, 4-(4-{[2-(4-chlorophenyl)-4,4-dimethylcyclohex-1-en-1-yl]methyl}piperazin-1-yl)-N-{[5-chloro-6-(tetrahydrofuran-3-ylmethoxy)pyridin-3-yl]sulfonyl}-2-(1H-indazol-4-yloxy)benzamide], at GST-Bcl-2, affinity was put at a Ki of 0.063 nM and the “Binding selectivity ratio” value turned out to be 1153.3. The compound also gave a Ki on GST-Bcl-XL of 72.1 nM.
The corresponding values for `CC1(C)CCC(CN2CCN(c3ccc(C(=O)NS(=O)(=O)c4cnc(OC[C@H]5CC[C@H](O)CC5)c(Cl)c4)c(Oc4cccc5[nH]ncc45)c3)CC2)=C(c2ccc(Cl)cc2)C1` [Example 421, Trans-N-({5-chloro-6-[(4-hydroxycyclohexyl)methoxy]pyridin-3-yl}sulfonyl)-4-(4-{[2-(4-chlorophenyl)-4,4-dimethylcyclohex-1-en-1-yl]methyl}piperazin-1-yl)-2-(1H-indazol-4-yloxy)benzamide] are 0.026 nM, 2089.5 and 54 nM.
The corresponding values for `CC1(C)CCC(CN2CCN(c3ccc(C(=O)NS(=O)(=O)c4cnc(O[C@@H]5CCN(CC(F)F)C5)c(Cl)c4)c(Oc4cccc5[nH]ncc45)c3)CC2)=C(c2ccc(Cl)cc2)C1` [Example 422, N-[(5-chloro-6-{[(3R)-1-(2,2-difluoroethyl)pyrrolidin-3-yl]oxy}pyridin-3-yl)sulfonyl]-4-(4-{[2-(4-chlorophenyl)-4,4-dimethylcyclohex-1-en-1-yl]methyl}piperazin-1-yl)-2-(1H-indazol-4-yloxy)benzamide] are 0.071 nM, 4073.4 and 290 nM.
With `CN(C)CC(=O)N1CCO[C@H](COc2ncc(S(=O)(=O)NC(=O)c3ccc(N4CCN(CC5=C(c6ccc(Cl)cc6)CC(C)(C)CC5)CC4)cc3Oc3cccc4[nH]cnc34)cc2Cl)C1` [Example 423, 2-(1H-benzimidazol-4-yloxy)-N-[(5-chloro-6-{[(2S)-4-(N,N-dimethylglycyl)morpholin-2-yl]methoxy}pyridin-3-yl)sulfonyl]-4-(4-{[2-(4-chlorophenyl)-4,4-dimethylcyclohex-1-en-1-yl]methyl}piperazin-1-yl)benzamide], on GST-Bcl-2, the Ki was below 0.01 nM and the “Binding selectivity ratio” value is 756.6. Affinity at GST-Bcl-XL was put at a Ki of 7.57 nM.
Turning to `CN(C)CC(=O)N1CCO[C@@H](COc2ncc(S(=O)(=O)NC(=O)c3ccc(N4CCN(CC5=C(c6ccc(Cl)cc6)CC(C)(C)CC5)CC4)cc3Oc3cccc4[nH]cnc34)cc2Cl)C1` [Example 424, 2-(1H-benzimidazol-4-yloxy)-N-[(5-chloro-6-{[(2R)-4-(N,N-dimethylglycyl)morpholin-2-yl]methoxy}pyridin-3-yl)sulfonyl]-4-(4-{[2-(4-chlorophenyl)-4,4-dimethylcyclohex-1-en-1-yl]methyl}piperazin-1-yl)benzamide], on GST-Bcl-2, the inhibitory constant (Ki) is below 0.01 nM and the “Binding selectivity ratio” value came to 782.5. Moreover, on GST-Bcl-XL, the Ki was found to be 7.82 nM.
The corresponding values for `CN(C)CC(=O)N1CCO[C@H](COc2ncc(S(=O)(=O)NC(=O)c3ccc(N4CCN(CC5=C(c6ccc(Cl)cc6)CC(C)(C)CC5)CC4)cc3Oc3cccc4[nH]ncc34)cc2Cl)C1` [Example 425, N-[(5-chloro-6-{[(2S)-4-(N,N-dimethylglycyl)morpholin-2-yl]methoxy}pyridin-3-yl)sulfonyl]-4-(4-{[2-(4-chlorophenyl)-4,4-dimethylcyclohex-1-en-1-yl]methyl}piperazin-1-yl)-2-(1H-indazol-4-yloxy)benzamide] are 0.003 nM, 1282.2 and 3.99 nM.
For `CN(C)CC(=O)N1CCO[C@@H](COc2ncc(S(=O)(=O)NC(=O)c3ccc(N4CCN(CC5=C(c6ccc(Cl)cc6)CC(C)(C)CC5)CC4)cc3Oc3cccc4[nH]ncc34)cc2Cl)C1` [Example 426, N-[(5-chloro-6-{[(2R)-4-(N,N-dimethylglycyl)morpholin-2-yl]methoxy}pyridin-3-yl)sulfonyl]-4-(4-{[2-(4-chlorophenyl)-4,4-dimethylcyclohex-1-en-1-yl]methyl}piperazin-1-yl)-2-(1H-indazol-4-yloxy)benzamide], in that order: 0.007 nM, 604.2 and 4.31 nM.
Consider `CC1(C)CCC(CN2CCN(c3ccc(C(=O)NS(=O)(=O)c4cnc(OCC5CCOCC5)c(Cl)c4)c(Oc4cccc5[nH]ncc45)c3)CC2)=C(c2ccc(Cl)cc2)C1` [Example 427, 4-(4-{[2-(4-chlorophenyl)-4,4-dimethylcyclohex-1-en-1-yl]methyl}piperazin-1-yl)-N-{[5-chloro-6-(tetrahydro-2H-pyran-4-ylmethoxy)pyridin-3-yl]sulfonyl}-2-(1H-indazol-4-yloxy)benzamide], for which, at GST-Bcl-2, affinity was put at a Ki of 0.002 nM and the “Binding selectivity ratio” value was found to be 34408.6. This compound also displayed an inhibition constant Ki on GST-Bcl-XL of 85.6 nM.
As to `CC1(C)CCC(CN2CCN(c3ccc(C(=O)NS(=O)(=O)c4ccc(N[C@@H]5CCN(CC#N)C5)c([N+](=O)[O-])c4)c(Oc4cccc5[nH]cnc45)c3)CC2)=C(c2ccc(Cl)cc2)C1` [Example 428, 2-(1H-benzimidazol-4-yloxy)-4-(4-{[2-(4-chlorophenyl)-4,4-dimethylcyclohex-1-en-1-yl]methyl}piperazin-1-yl)-N-[(4-{[(3R)-1-(cyanomethyl)pyrrolidin-3-yl]amino}-3-nitrophenyl)sulfonyl]benzamide], the inhibitory constant (Ki) was 0.003 nM at GST-Bcl-2 and 15.6 nM on GST-Bcl-XL. In addition, the “Binding selectivity ratio” value on GST-Bcl-2 is recorded as 5832.2.
`COCCOCCN1CC[C@@H](Nc2ccc(S(=O)(=O)NC(=O)c3ccc(N4CCN(CC5=C(c6ccc(Cl)cc6)CC(C)(C)CC5)CC4)cc3Oc3cccc4[nH]cnc34)cc2[N+](=O)[O-])C1` [Example 429, 2-(1H-benzimidazol-4-yloxy)-4-(4-{[2-(4-chlorophenyl)-4,4-dimethylcyclohex-1-en-1-yl]methyl}piperazin-1-yl)-N-{[4-({(3R)-1-[2-(2-methoxyethoxy)ethyl]pyrrolidin-3-yl}amino)-3-nitrophenyl]sulfonyl}benzamide]: at GST-Bcl-2, the Ki is below 0.01 nM and the “Binding selectivity ratio” value came to 140.7. At GST-Bcl-XL, this compound had an inhibition constant Ki of 1.41 nM.
In the case of `CN(C)CC(=O)N1CC[C@@H](Nc2ccc(S(=O)(=O)NC(=O)c3ccc(N4CCN(CC5=C(c6ccc(Cl)cc6)CC(C)(C)CC5)CC4)cc3Oc3cccc4[nH]cnc34)cc2[N+](=O)[O-])C1` [Example 430, 2-(1H-benzimidazol-4-yloxy)-4-(4-{[2-(4-chlorophenyl)-4,4-dimethylcyclohex-1-en-1-yl]methyl}piperazin-1-yl)-N-[(4-{[(3R)-1-(N,N-dimethylglycyl)pyrrolidin-3-yl]amino}-3-nitrophenyl)sulfonyl]benzamide], on GST-Bcl-2, the Ki was below 0.01 nM and the “Binding selectivity ratio” value is 99.8. The compound also showed a Ki on GST-Bcl-XL of 0.998 nM.
`CC1(C)CCC(CN2CCN(c3ccc(C(=O)NS(=O)(=O)c4ccc(NCC5CN(CC#N)CCO5)c([N+](=O)[O-])c4)c(Oc4cccc5[nH]cnc45)c3)CC2)=C(c2ccc(Cl)cc2)C1` (centres unmarked) [Example 431, 2-(1H-benzimidazol-4-yloxy)-4-(4-{[2-(4-chlorophenyl)-4,4-dimethylcyclohex-1-en-1-yl]methyl}piperazin-1-yl)-N-{[4-({[4-(cyanomethyl)morpholin-2-yl]methyl}amino)-3-nitrophenyl]sulfonyl}benzamide]: at GST-Bcl-2, the Ki is below 0.01 nM and the “Binding selectivity ratio” value amounted to 677.4. The compound also had a Ki on GST-Bcl-XL of 6.77 nM.
The corresponding values for `CC1(C)CCC(CN2CCN(c3ccc(C(=O)NS(=O)(=O)c4ccc(NCC5CN(C6CC6)CCO5)c([N+](=O)[O-])c4)c(Oc4cccc5[nH]cnc45)c3)CC2)=C(c2ccc(Cl)cc2)C1` (centres unmarked) [Example 432, 2-(1H-benzimidazol-4-yloxy)-4-(4-{[2-(4-chlorophenyl)-4,4-dimethylcyclohex-1-en-1-yl]methyl}piperazin-1-yl)-N-[(4-{[(4-cyclopropylmorpholin-2-yl)methyl]amino}-3-nitrophenyl)sulfonyl]benzamide] are 0.023 nM, 408.8 and 9.3 nM.
Regarding `CC1(C)CCC(CN2CCN(c3ccc(C(=O)NS(=O)(=O)c4ccc(NCC5CN(C6COC6)CCO5)c([N+](=O)[O-])c4)c(Oc4cccc5[nH]cnc45)c3)CC2)=C(c2ccc(Cl)cc2)C1` (centres unmarked) [Example 433, 2-(1H-benzimidazol-4-yloxy)-4-(4-{[2-(4-chlorophenyl)-4,4-dimethylcyclohex-1-en-1-yl]methyl}piperazin-1-yl)-N-[(3-nitro-4-{[(4-oxetan-3-ylmorpholin-2-yl)methyl]amino}phenyl)sulfonyl]benzamide], the figures for the Ki on GST-Bcl-2 and on GST-Bcl-XL were below 0.01 nM and 2.29 nM, respectively.
